Structures can show the parent of a compound that is named as a salt.
Biological target: T1, human B1 (Homo sapiens, UniProt P46663)
T1 construct: host or cells: CHO-K1
T1 sequence (P46663 1-353): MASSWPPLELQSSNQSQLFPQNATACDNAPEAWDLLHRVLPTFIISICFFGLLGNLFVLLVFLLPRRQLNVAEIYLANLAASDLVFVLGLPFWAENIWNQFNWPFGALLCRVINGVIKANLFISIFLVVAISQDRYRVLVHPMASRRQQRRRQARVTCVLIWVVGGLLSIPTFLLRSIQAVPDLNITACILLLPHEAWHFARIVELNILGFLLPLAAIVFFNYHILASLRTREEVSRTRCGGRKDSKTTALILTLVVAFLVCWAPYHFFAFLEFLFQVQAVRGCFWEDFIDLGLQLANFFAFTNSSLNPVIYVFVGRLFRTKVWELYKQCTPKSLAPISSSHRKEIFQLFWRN
Assay: Calcium flux assay for Bradykinin B1 antagonist, CHO-K1 cell line expressing human B1
Assay type: cell-based
Details: CHO-K1 cells expressing human B1, agonist Lys-(Des-Arg)-Bradykinin, read-out: Potency (IC50 value against human B1)
Summary of the method: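 Inhibition of B1 agonist-evoked intracellular Ca2+ rise was followed by continuous fluorescence at 538 nm, with integrated, background-normalized signals plotted versus log compound concentration. Test compounds (eight 10-fold dilutions, triplicate, 1% DMSO final) were added 30 min at 25° C beforehand to Fluo-4AM-loaded human B1 CHO-K1 cells in pH 7.4 assay buffer.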

IC50: 100 to 1000 nM
SMILES: COc1cc(C)c(S(=O)(=O)N(Cc2cc(C(=O)N3CCN(C4CC(C)(C)N(C)C(C)(C)C4)CC3)co2)C2CC2)c(C)c1 [Ex 108, N-Cyclopropyl-4-methoxy-2,6-dimethyl-N-[(4-{[4-(1,2,2,6,6-pentamethylpiperidin-4-yl)piperazin-1-yl]carbonyl}furan-2-yl)methyl]benzenesulfonamide trifluoroacetate]

Reference: US8623859B2, “Bradykinin B1 antagonists” (Evotec AG, priority 2008, dated 2014)
